Reference: patent publication US7378375B1, “Substituted pyridine herbicides” (Syngenta Crop Protection, Inc., priority 2000, dated 2008)

Assays:
[1] = tested on: Monocotyledonous and dicotyledonous test plants; test: Post-emergence herbicidal action, greenhouse pot test, sprayed at the 2- to 3-leaf stage, 9-level rating after 2 to 3 weeks; assay type: in vivo; parameters: key: 9-level scale: 1 = complete damage, 9 = no effect; details: 250 g/ha, rated after 2 to 3 weeks, 9-level scale
How it was run: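 Plants grown in standard soil in pots; test substances sprayed at the 2- to 3-leaf stage at optimum dosage (500 l water/ha) as aqueous suspension or emulsion from formulated concentrates. Plants then kept in the greenhouse under optimum conditions; rated after 2 to 3 weeks on a 9-level scale (1=complete damage, 9=no effect).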

[2] = tested on: Monocotyledonous and dicotyledonous test plants; test: Herbicidal action before emergence of the plants (pre-emergence action), greenhouse pot test, 9-level rating after 4 weeks; assay type: in vivo; parameters: key: 9-level scale: 1 = complete damage, 9 = no effect; details: 250 g/ha, rated after 4 weeks, 9-level scale
Protocol: Herbicidal Action Before Emergence of the Plants (Pre-Emergence Action)
Monocotyledonous and dicotyledonous test plants are sown in standard soil in pots. Immediately after sowing, the test substances are sprayed on at an optimum dosage (500 l of water/ha) as an aqueous suspension (prepared from a wettable powder (example F3, b) according to WO 97/34485) or emulsion (prepared from an emulsion concentrate (example F1, c) according to WO 97/34485). The test plants are then grown under optimum conditions in a greenhouse.
After a test period of 4 weeks, the test is evaluated using a 9-level scale of ratings (1=complete damage, 9=no effect). Ratings of 1 to 4 (in particular 1 to 3) mean good to very good herbicidal action.

Compound	Post-emergence action rating, Abutilon [1]	Post-emergence action rating, Amaranth [1]	Post-emergence action rating, Chenop. [1]	Post-emergence action rating, Digitaria [1]	Post-emergence action rating, Echino. [1]	Post-emergence action rating, Ipopur. [1]	Post-emergence action rating, Panicum [1]	Post-emergence action rating, Xanth. [1]	Pre-emergence action rating, Abutilon [2]	Pre-emergence action rating, Amaranthus [2]	Pre-emergence action rating, Chenop. [2]	Pre-emergence action rating, Digitaria [2]	Pre-emergence action rating, Echino. [2]	Pre-emergence action rating, Panicum [2]
CC#CCOCc1nc(C(F)(F)F)ccc1C(=O)c1cnn(C)c1O [A20-C5]	3	2	1	3	4	3	2	3	1	1	1	2	2	1
O=C(C1=C(O)C2CCC(C2)C1=O)c1ccc(C(F)(F)F)nc1COC1COC1 (stereo not shown) [A24-B52]	2	2	1	2	2	2	2	2	1	1	1	1	1	1
O=C(C1=C(O)C2CCC(C2)C1=O)c1ccc(C(F)(F)F)nc1COC1CCCCC1 (stereo not shown) [A27-B52]	3	2	5	2	2	4	1	2	4	1	3	2	3	1
CCN(CC)CC.O=C(C1=C(O)C2CCC(C2)C1=O)c1ccc(C(F)(F)F)nc1COC1CCCCO1 (stereo not shown) [A28-B52 (Et3NH+)]	2	2	1	2	2	2	1	3	3	1		2	2	1
O=C(C1=C(O)C2CCC(C2)C1=O)c1ccc(C(F)(F)F)nc1COC1CCCCO1 (stereo not shown) [A28-B52]	2	1	1	2	2	4	1	3	2	3		2	2	1
O=C(C1=C(O)C2CCC(C2)C1=O)c1ccc(C(F)(F)F)nc1COCC1CC1 (stereo not shown) [A56-B52]	2	1	1	2	2	2	1	2	3	1	1	2	1	1
O=C(C1=C(O)C2CCC(C2)C1=O)c1ccc(C(F)(F)F)nc1COCC1CO1 (stereo not shown) [A57-B52 (H5), 4-Hydroxy-3-(2-oxiranylmethoxymethyl-6-trifluoromethylpyridine-3-carbonyl)-bicyclo[3.2.1]oct-3-en-2-one]	1	1	1	1	2	2	1	2	1	1	1	1	1	1
O=C(C1=C(O)C2CCC(C2)C1=O)c1ccc(C(F)(F)F)nc1COCC1CCCCO1 (stereo not shown) [A63-B52]	2	2	2	2	2	2	1	2	5	3		3	1	2
O=C(C1=C(O)C2CCC(C2)C1=O)c1ccc(C(F)(F)F)nc1COCc1ccccc1 (stereo not shown) [A67-B52]	2	2	1	2	2	3	2	2	3	2	1	2	2	1
COCCOCc1nc(C(F)(F)Cl)ccc1C(=O)C1=C(O)C2CCC(C2)C1=O (stereo not shown) [A556-B52]	1	2	1	2	2	2	1	2	1	2	1	1	1	1
COCCOCc1nc(C(F)F)ccc1C(=O)C1=C(O)C2CCC(C2)C1=O (stereo not shown) [A646-B52]	2	2	1	2	2	2	1	2	1	2	1	1	1	1
